“And” between values parts separate entries of the source, which are not always exact repeats. Equal entries are not always repeated. The source made the active and inactive calls. How the calls were made is not given here.

The nature of this assay: inhibitors of enzymatic SUMO conjugation, SAR follow-up, biochemical, AlphaScreen (AID 485374). Conditions: AlphaScreen biochemical SUMOylation assay. Background: Alpha assays give light when donor and acceptor beads are brought close together.
`COC(=O)C1=C(C(=O)OC)C2([C@H](Cc3ccc(C)cc3)Nc3ccccc3)C=CC1O2` (some centres not stated): the IC50 was 2.19 µM.

`C=CC[C@H](Nc1ccc(OC)cc1)C12C=CC(O1)C(C(=O)OC)=C2C(=O)OC` (some centres not stated): the IC50 was 17.7 µM. As for `CCCCn1c(N)c(S(=O)(=O)c2ccc(C)cc2)c2nc3ccccc3nc21`, the IC50 is > 100 µM (inactive). With `COC(=O)C1=C(C(=O)O)C2C=CC1([C@@H](Cc1ccccc1)Nc1ccccc1)O2` (some centres not stated) the figure was 2.87 µM; with `COC(=O)C1=C(C(=O)OC)C2([C@@H](C)Nc3ccc(Cl)cc3)C=CC1O2` (some centres not stated), 18.2 µM. As to `CCCCn1c(NC(=O)c2ccc(Cl)cc2)c(C#N)c2nc3ccccc3nc21`, the IC50 was 2.1 µM. With `C=C[C@H](Nc1ccccc1)C12C=CC(O1)C(C(=O)OC)=C2C(=O)OC` (some centres not stated), the IC50 is 10.4 µM. For the compound `CCCN1C(=O)C(NC(C)=O)c2cc(OC)ccc21` (configuration not stated), the IC50 was > 100 µM (inactive). Turning to `COc1cc(/C=C2\C(=O)N(c3ccccc3)N=C2C)ccc1O`, the IC50 is 21.1 µM and 25.5 µM. Regarding `COC(=O)C1=C(C(=O)OC)C2([C@@H](C)Nc3ccc(C)cc3)C=CC1O2` (some centres not stated), the IC50 is 35.1 µM. The figure for `COc1ccc2c(c1)C(NC(C)=O)C(=O)N2CCc1ccccc1` (configuration not stated) is > 100 µM (inactive); for `c1ccc(CC(Nc2ccccc2)c2ccco2)cc1` (configuration not stated) it is > 100 µM (inactive). As to `COc1cc(/C=C2\C(=O)N(c3ccccc3)N=C2C)ccc1OCc1ccccc1`, the IC50 is > 100 µM (inactive). As to `COC(=O)C1=C(C(=O)OC)C2(C(Cc3ccc(F)cc3)Nc3ccccc3)C=CC1O2` (configuration not stated), the 50% inhibitory concentration (IC50) was 0.527 µM. Consider `C=CCC(Nc1ccccc1)C12C=CC(O1)C(C(=O)OC)=C2C(=O)OC` (configuration not stated), for which the IC50 was 1.36 µM. With `C=CC[C@@H](Nc1ccccc1)C12C=CC(O1)C(C(=O)OC)=C2C(=O)OC` (some centres not stated), the IC50 was 1.8 µM. `C=CC[C@H](N(Cc1ccccc1)/C(=C\C(=O)OC)C(=O)OC)C12C=CC(O1)C(C(=O)OC)=C2C(=O)OC` (some centres not stated): the IC50 is 15.1 µM. On to `COC(=O)C1=C(C(=O)OC)C2([C@H](Cc3ccccc3)Nc3ccc(OC)cc3)C=CC1O2` (some centres not stated), for which the IC50 was 13 µM. Turning to `COC(=O)C1=C(C(=O)OC)C2([C@@H](C)Nc3ccc(OC)cc3)C=CC1O2` (some centres not stated), the half-inhibitory concentration (IC50) is 55.6 µM. For the compound `Cc1cc(C)c2c(c1)C(=O)C(=O)N2CCN1CCOCC1`, the IC50 was > 100 µM (inactive). Turning to `COCCNC(=O)c1c(NC(=O)c2ccccc2)n(Cc2ccccc2)c2nc3ccccc3nc12`, the IC50 is 51.3 µM.

In the case of `CCCCCn1c(NC(=O)c2ccco2)c(C(=O)OCC)c2nc3ccccc3nc21`, the IC50 was 4.9 µM.

For the compound `CC(=O)NC1C(=O)N(CCN2CCOCC2)c2ccc(C)cc21` (configuration not stated), the IC50 is > 100 µM (inactive).

Regarding `C=CCC(c1ccco1)N(Cc1ccccc1)/C(=C/C(=O)OC)C(=O)OC` (configuration not stated), the IC50 is > 100 µM (inactive).

In the case of `C=CC[C@@H](Nc1ccc(Cl)cc1)C12C=CC(O1)C(C(=O)OC)=C2C(=O)OC` (some centres not stated), the IC50 is 3.84 µM. As to `COC(=O)C1=C(C(=O)OC)C2([C@@H](Cc3ccc(C)cc3)Nc3ccccc3)C=CC1O2` (some centres not stated), the IC50 is 0.369 µM. The figure for `CCC(=O)Nc1c(S(=O)(=O)c2ccccc2)c2nc3ccccc3nc2n1Cc1ccccc1` is 43.4 µM; for `COC(=O)C1=C(C(=O)OC)C2([C@H](Cc3ccccc3)Nc3ccc(C)cc3)C=CC1O2` (some centres not stated) it is 7.19 µM.

Turning to `COc1ccc2c(c1)C(NC(C)=O)C(=O)N2CC1COc2ccccc2O1` (configuration not stated), the IC50 is 66.3 µM. On to `CCCCn1c(NC(=O)C2CCCCC2)c(C#N)c2nc3ccccc3nc21`, for which the concentration for half-maximal inhibition (IC50) is 2.39 µM.

`COC(=O)C1=C(C(=O)OC)C2([C@@H](Cc3ccccc3)Nc3ccc(OC)cc3)C=CC1O2` (some centres not stated): the IC50 was 4.87 µM. With `C=CC[C@@H](N(Cc1ccccc1)/C(=C\C(=O)OC)C(=O)OC)C12C=CC(O1)C(C(=O)OC)=C2C(=O)OC` (some centres not stated) the figure was 21.3 µM. Regarding `COC(=O)C1=C(C(=O)OC)C2([C@@H](Cc3ccccc3)Nc3ccc(C)cc3)C=CC1O2` (some centres not stated), the IC50 was 2.96 µM. The figure for `N#Cc1c(NC(=O)c2ccccc2Cl)n(C2CCCCC2)c2nc3ccccc3nc12` is 1.95 µM; for `COC(=O)C1=C(C(=O)OC)C2(C(Cc3ccc(OC(F)(F)F)cc3)Nc3ccccc3)C=CC1O2` (configuration not stated) it is 0.611 µM; for `Nc1c(C(=O)NCc2ccco2)c2nc3ccccc3nc2n1Cc1ccccc1` it is 41.2 µM.

As to `COC(=O)C1=C(C(=O)OC)C2([C@H](C)Nc3ccc(Cl)cc3)C=CC1O2` (some centres not stated), the IC50 was 11.5 µM.

As for `CCCCn1c(NC(C)=O)c(C#N)c2nc3ccccc3nc21`, the IC50 is 8.11 µM. On to `COC(=O)C=C(NC(CO)(CO)CO)C(=O)OC`, for which the IC50 was > 100 µM (inactive). In the case of `C=CC[C@@H](Nc1ccc(OC)cc1)C12C=CC(O1)C(C(=O)OC)=C2C(=O)OC` (some centres not stated), the half-maximal inhibitory concentration (IC50) was 22.3 µM. The figure for `C=CC[C@H](Nc1ccc(C)cc1)C12C=CC(O1)C(C(=O)OC)=C2C(=O)OC` (some centres not stated) is 11.7 µM; for `CCCCn1c(NC(=O)c2ccco2)c(C#N)c2nc3ccccc3nc21` it is 3.45 µM; for `CCCCn1c(NC(=O)c2ccc(F)cc2)c(S(=O)(=O)c2ccc(C)cc2)c2nc3ccccc3nc21` it is 6.24 µM. The figure for `COc1ccc2c(c1)C(NC(C)=O)C(=O)N2CCN1CCOCC1` (configuration not stated) is 5.02 µM; for `COC(=O)C1=C(C(=O)OC)C2([C@@H](C)Nc3ccccc3)C=CC1O2` (some centres not stated) it is 7.79 µM; for `CCCCn1c(NC(=O)c2ccco2)c(S(=O)(=O)c2ccc(C)cc2)c2nc3ccccc3nc21` it is 7.9 µM.

For the compound `CCCCn1c(NC(=O)c2ccccc2)c(C#N)c2nc3ccccc3nc21`, the IC50 was 2.93 µM and 1.2 µM.

In the case of `COC(=O)C1=C(C(=O)OC)C2([C@@H](Cc3ccccc3)Nc3ccccc3)C=CC1O2` (some centres not stated), the IC50 was 0.329 µM. For the compound `CCCCn1c(N)c(C#N)c2nc3ccccc3nc21`, the IC50 was 13.3 µM.

In the case of `CCC[C@H](Nc1ccccc1)C12C=CC(O1)C(C(=O)OC)=C2C(=O)OC` (some centres not stated), the IC50 was 2.87 µM. `C=CC[C@@H](Nc1ccc(C)cc1)C12C=CC(O1)C(C(=O)OC)=C2C(=O)OC` (some centres not stated): the IC50 was 12.4 µM. For `COc1ccc2c(c1)C(NC(C)=O)C(=O)N2CCOc1ccccc1` (configuration not stated), the IC50 is 70.2 µM.

For the compound `CCCCn1c(NC(=O)c2ccccc2)c(S(=O)(=O)c2ccc(C)cc2)c2nc3ccccc3nc21`, the half-inhibitory concentration (IC50) was 9.52 µM and 6.5 µM. As to `COC(=O)C1=C(C(=O)OC)C2([C@@H](Cc3ccc(OC)cc3)Nc3ccccc3)C=CC1O2` (some centres not stated), the IC50 is 0.614 µM. `CCCCn1c(NC(=O)c2cccc(Cl)c2)c(C#N)c2nc3ccccc3nc21`: the IC50 was 1.62 µM. On to `CCCCn1c(NC(=O)c2ccccc2Cl)c(C#N)c2nc3ccccc3nc21`, for which the IC50 is 20.1 µM. Turning to `CCCCn1c(NC(=O)CC)c(S(=O)(=O)c2ccc(C)cc2)c2nc3ccccc3nc21`, the IC50 was 33.1 µM.

As to `COc1ccc(CN2C(=O)C(NC(C)=O)c3ccccc32)cc1` (configuration not stated), the IC50 is > 100 µM (inactive). The figure for `COc1cc(/C=C2\C(=O)N(c3ccccc3)N=C2C)ccc1OC(=O)c1cccs1` is 15.8 µM; for `COC(=O)[C@@H]1C2CCC([C@@H](Cc3ccccc3)Nc3ccccc3)(O2)[C@@H]1C(=O)OC` (some centres not stated) it is > 100 µM (inactive); for `CCCCNC(=O)c1c(NC(=O)c2ccccc2)n(Cc2ccccc2)c2nc3ccccc3nc12` it is 91.1 µM.

In the case of `C=CC[C@H](Nc1ccc(Cl)cc1)C12C=CC(O1)C(C(=O)OC)=C2C(=O)OC` (some centres not stated), the IC50 is 4.18 µM. With `CCCCn1c(NC(=O)c2ccccc2Cl)c(S(=O)(=O)c2ccccc2)c2nc3ccccc3nc21` the figure was 5.63 µM; with `N#Cc1c(NC(=O)c2ccccc2Cl)n(Cc2ccccc2)c2nc3ccccc3nc12`, 2.44 µM. As to `COC(=O)C1=C(C(=O)OC)C2([C@@H](Cc3ccccc3)Nc3ccc(Cl)cc3)C=CC1O2` (some centres not stated), the IC50 was 0.713 µM. Consider `S=c1[nH]nc(-c2cc(-c3ccccc3)n[nH]2)n1N=Cc1ccc(Br)s1`, for which the IC50 is 2.07 µM. Turning to `CCC[C@@H](Nc1ccccc1)C12C=CC(O1)C(C(=O)OC)=C2C(=O)OC` (some centres not stated), the IC50 was 0.533 µM.

As for `COC(=O)C1=C(C(=O)OC)C2([C@H](Cc3ccccc3)Nc3ccc(Cl)cc3)C=CC1O2` (some centres not stated), the IC50 was 2.56 µM. Regarding `CCCCn1c(NC(=O)c2ccc(OC)cc2)c(S(=O)(=O)c2ccc(C)cc2)c2nc3ccccc3nc21`, the half-maximal inhibitory concentration (IC50) is 8.08 µM.

On to `C=C[C@@H](Nc1ccccc1)C12C=CC(O1)C(C(=O)OC)=C2C(=O)OC` (some centres not stated), for which the IC50 is 7.23 µM. With `CCCCn1c(NC(=O)c2ccc(F)cc2)c(C#N)c2nc3ccccc3nc21` the figure was 0.757 µM; with `COC(=O)C1=C(C(=O)OC)C2([C@H](C)Nc3ccccc3)C=CC1O2` (some centres not stated), 23.9 µM.

For the compound `COCCn1c(NC(=O)c2ccc(Cl)cc2)c(S(=O)(=O)c2ccc(C)cc2)c2nc3ccccc3nc21`, the half-inhibitory concentration (IC50) is 6.59 µM. For `COc1ccc2c(c1)C(=O)C(=O)N2CCN1CCOCC1`, the IC50 was 76.8 µM. Regarding `COC(=O)C1=C(C(=O)OC)C2([C@H](Cc3ccccc3)Nc3ccccc3)C=CC1O2` (some centres not stated), the IC50 was 5.04 µM. For the compound `CCCC1=NN(c2ccccc2)C(=O)/C1=C\c1ccc(O)cc1`, the IC50 was 19.2 µM. The figure for `C=CC[C@H](Nc1ccccc1)C12C=CC(O1)C(C(=O)OC)=C2C(=O)OC` (some centres not stated) is 5.95 µM.

One may read the IC50 as the concentration needed to halve the response being measured.
